How the values were obtained:
adenosine A1 receptor = target: T1, adenosine A1 receptor (Rattus norvegicus, UniProt P25099); experiment: Adenosine Receptor Binding - A1 Receptor Affinity (RBA 1), [3H]-CHA displacement; settings: rat whole brain membranes, 1.0 nM [3H]-CHA, one hour at 25°C
T1 construct: Whole brain minus cerebellum and brainstem from male Long Evans rats (150-200 g) was homogenized; from tissue; host or cells: rat whole brain minus cerebellum and brainstem (membrane homogenate)
T1 sequence (P25099 1-326): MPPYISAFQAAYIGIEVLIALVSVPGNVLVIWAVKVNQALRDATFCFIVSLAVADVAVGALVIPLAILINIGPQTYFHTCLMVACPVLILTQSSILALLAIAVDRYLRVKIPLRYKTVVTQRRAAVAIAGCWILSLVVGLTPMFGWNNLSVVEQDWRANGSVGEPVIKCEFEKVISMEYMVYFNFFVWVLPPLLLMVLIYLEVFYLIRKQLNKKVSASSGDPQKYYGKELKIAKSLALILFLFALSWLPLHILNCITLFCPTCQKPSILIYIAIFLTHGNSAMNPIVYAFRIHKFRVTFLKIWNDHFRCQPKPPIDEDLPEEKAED
Experimental: Whole brain minus cerebellum and brainstem from male Long Evans rats (150-200 g) was homogenized in 30 volumes of ice-cold 0.05 M Tris-HCI buffer pH 7.7 using a Brinkman Polytron PT-10, (setting number 6 for 20 seconds) and centrifuged for ten minutes at 20,000 x g (Sorvall RC-2), 4°C. The supernatant was discarded, and the pellet was resuspended and centrifuged as before. The pellet was resuspended in 20 ml Tris-HCI buffer containing two International Units/ml of adenosine deaminase (Sigma Type III from calf intestinal mucosa), incubated at 37°C for 30 minutes, then subsequently at 0°C for ten minutes. The homogenate was again centrifuged, and the final pellet was resuspended in ice-cold 0.05 M Tris-HCI buffer pH 7.7 to a concentration of 20 mg/ml original wet tissue weight and used immediately.
Tissue homogenate (10 mg/ml) was incubated in 0.05 M Tris-HCI buffer pH 7.7 containing 1.0 nM [^3H]-N^6-cyclohexyladenosine (^3H]-CHA) with or without test agents in triplicate for one hour at 25°C. Incubation volume was 2 ml. Unbound [^3H]-CHA was separated by rapid filtration under reduced pressure through Whatman glass fiber (GF/B) filters. The filters were rinsed three times with 5 ml of ice cold 0.05 M Tris-HCI buffer pH 7.7. The radio-labele ligand retained on the filter was measured by liquid scintillation spectrophotometry after shaking the filters for one hour or longer on a mechanical shaker in 10 ml of Beckman Ready-Solv HP scintillation cocktail.
Nonspecific binding was defined as the binding which occurred in the presence of 1 mM theophylline. The concentration of test agent which inhibited 50% of the specific binding (IC50) was determined by nonlinear computer curve fit. The Scatchard plot was calculated by linear regression of the line obtained by plotting the amount of radioligand bound (pmoles/gram of tissue) versus
• bound radioligand • free radioligand Since the amount of radioligand bound was a small fraction of the total amount added, free radioligand was defined as the concentration (nM) of radioligand added to the incubation mixture. The Hill coefficient was calculated by linear regression of the line obtained by plotting the log of the bound radioligand vs the log of the • bound radioligand • Bmax - bound radioligand • The maximal number of binding sites (Bmax) was calculated from the Scatchard plot.

adenosine A2 receptor = target: T2, adenosine A2 receptor (Rattus norvegicus, UniProt P30543); experiment: Adenosine Receptor Binding - A2 Receptor Affinity (RBA2), [3H]NECA displacement in striatal membranes; settings: 4 nM [3H]NECA, 50 nM N6-cyclopentyladenosine, 60 minutes at 25°C, read-out: RBA-2 (IC50, A2 receptor affinity)
T2 construct: Brains were thawed and then kept on ice while the striata were dissected out; tissue Pel-Freez (Rogers, Arkansas); host or cells: rat striatum (membranes)
T2 sequence (P30543 whole entry): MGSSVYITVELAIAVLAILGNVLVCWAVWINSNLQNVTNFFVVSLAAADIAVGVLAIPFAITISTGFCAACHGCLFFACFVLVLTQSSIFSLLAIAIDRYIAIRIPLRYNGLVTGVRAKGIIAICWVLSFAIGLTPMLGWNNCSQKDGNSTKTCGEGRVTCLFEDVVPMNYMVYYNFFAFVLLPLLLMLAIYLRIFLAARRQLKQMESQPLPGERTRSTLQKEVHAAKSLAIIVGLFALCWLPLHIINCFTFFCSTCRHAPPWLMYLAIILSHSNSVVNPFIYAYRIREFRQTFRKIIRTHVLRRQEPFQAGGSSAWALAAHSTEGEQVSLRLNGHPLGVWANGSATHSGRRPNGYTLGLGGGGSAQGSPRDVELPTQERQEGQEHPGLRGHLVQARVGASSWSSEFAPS
Experimental: Brains from 200-500 g mixed sex Sprague-Dawley rats were purchased from Pel-Freez (Rogers, Arkansas). Fresh brains from male Long-Evans hooded rats (Blue Spruce Farms, Altamont, NY) gave essentially identical results. Brains were thawed and then kept on ice while the striata were dissected out. Striata were disrupted in 10 vol of ice-cold 50 mM Tris·HCl (pH 7.7 at 25°C, pH 8.26 at 5°C) (Tris) for 30 seconds in a Polytron PT―10 (Brinkmann) at setting 5. The suspension was centrifuged at 50,000 xg for ten minutes, the supernatant discarded, the pellet resuspended in 10 vol ice-cold Tris as above, recentrifuged, resuspended at 1 g/5 ml, and stored in plastic vials at -70°C (stable for at least six months). When needed, tissue was thawed at room temperature, disrupted in a Polytron, and kept on ice until used.
All incubations were for 60 minutes at 25°C in 12 x 75 mm glass tubes containing 1 ml Tris with 5 mg original tissue weight of rat weight of rat striatal membranes, 4 nM [^3H]-N-ethyl adenosine-5'-carboxamide ([^3H]NECA), 50 nM N^s-cyclopentyladenosine (to eliminate A1 receptor binding), 10 mM MgCI2, 0.1 units/ml of adenosine deaminase and 1% dimethylsulfoxide. N^6-Cyclopentyladenosine was dissolved at 10 mM in 0.02 N HCI and diluted in Tris. Stock solutions and dilutions of N^6-cyclopentyladenosine could be stored at -20°C for several months. Test compounds were dissolved at 10 mM in dimethylsulfoxide on the same day as the experiment, and diluted in dimethylsulfoxide to 100x the final incubation concentration. Control incubations received an equal volume (10 µl) of dimethylsulfoxide; the resulting concentration of dimethylsulfoxide had no effect on binding. [^3H]NECA was diluted to 40 nM in Tris. The membrane suspension (5 mg/0.79 ml) contained sufficient MgC12 and adenosine deaminase to give 10 mM and 0.1 units/ml, respectively, final concentration in the incubation. […] After all additions, the rack of tubes was vortexed, and the tubes were then incubated for 60 min at 25°C in a shaking water bath. The rack of tubes was vortexed an additional time halfway through the incubation.
Incubations were terminated by filtration through 2.4 cm GF/B filters under reduced pressure. Each tube was filtered as follows: the contents of the tube were poured onto the filter, 4 ml of ice-cold Tris were added to the tube and the contents poured onto the filter, and the filter was washed twice with 4 ml of ice-cold Tris. The filtration was complete in about 12 seconds. Filters were put in scintillation vials, 8 ml of Formula 947 scintillation fluid added, and the vials left overnight, shaken, and counted in a liquid scintillation counter at 40% efficiency.
Nonspecific binding was defined as binding in the presence of […] N^6-cyclopentyladenosine, and specific binding was defined as total binding minus nonspecific binding. The IC50 was calculated by weighted nonlinear least squares curve-fitting to the mass action equation. [formula] • where Y is cpm bound • T is cpm total binding without drug • S is cpm specific binding without drug • D is the concentration of drug • and K is the IC50 of the drug Weighting factors were calculated under the assumption that the standard deviation was proportional to the predicted value of Y. Nonspecific binding was treated as a very large (infinite) concentration of drug in the computer analysis.

## Cc1ccc(C(C)C)c2c1CC(Nc1ncnc3c1ncn3[C@@H]1O[C@H](CO)[C@@H](O)[C@H]1O)CO2 (some centres unmarked) [Example 12, N^6-[8-lsopropyl-5-methyl-3-chromanylamino]adenosine]
Adenosine A1 receptor
  IC50: 188 nM
Adenosine A2 receptor
  IC50: 1540 nM

From patent publication EP0181109B1, “N6-benzopyrano- and benzothiopyrano-adenosines” (WARNER-LAMBERT COMPANY, priority 1984, dated 1986)
